According to PubChem BioAssay (NCI):
Several values for one entry are separate records, joined by “and”; a condition that tells them apart may be missing. Equal values may be shown once.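 1) Cells in 96-well plates. 2) Compound, 48 h, 5 concentrations. 3) Linear interpolation between surrounding doses. 4) Unreached endpoint = highest concentration. At the GI50, growth is halved. TGI: concentration producing complete growth inhibition.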

Tests used:
Assay in all cases: NCI-60 cell line screen, 48 h
BT-549 breast = tested on: BT-549 breast
COLO 205 colon = tested on: COLO 205 colon
LOX IMVI melanoma = tested on: LOX IMVI melanoma
NCI-H226 lung = tested on: NCI-H226 lung
NCI-H522 lung = tested on: NCI-H522 lung
OVCAR-4 ovarian = tested on: OVCAR-4 ovarian
PC-3 prostate = tested on: PC-3 prostate
SF-268 CNS = tested on: SF-268 CNS
SK-MEL-2 melanoma = tested on: SK-MEL-2 melanoma
T-47D breast = tested on: T-47D breast

SMILES | GI50 (BT-549 breast) [µM] | TGI (BT-549 breast) | GI50 (COLO 205 colon) [µM] | TGI (COLO 205 colon) | GI50 (LOX IMVI melanoma) [µM] | TGI (LOX IMVI melanoma) | GI50 (NCI-H226 lung) [µM] | TGI (NCI-H226 lung) | GI50 (NCI-H522 lung) [µM] | TGI (NCI-H522 lung) | GI50 (OVCAR-4 ovarian) [µM] | TGI (OVCAR-4 ovarian) | GI50 (PC-3 prostate) [µM] | TGI (PC-3 prostate) | GI50 (SF-268 CNS) [µM] | TGI (SF-268 CNS) | GI50 (SK-MEL-2 melanoma) [µM] | TGI (SK-MEL-2 melanoma) | GI50 (T-47D breast) [µM] | TGI (T-47D breast)
O=C1OCC2=C1C(c1cccc(Cl)c1)c1cc3c(cc1N2CCO)CCC3 (stereo not given) | 0.166 | 8.69 µM | 0.0401 | 0.309 µM | 0.0661 | 13.8 µM | 0.0527 | 0.912 µM | 0.0203 | 0.0603 µM | 0.0609 | 19.5 µM | 0.0398 | 11.8 µM | 0.0653 | 10.5 µM | 0.0323 | 0.441 µM | 0.0414 | 23.2 µM
c1ccc(CC(Nc2cccnc2)c2ccccc2)cc1 (stereo not given) | – | 65.6 µM | – | 37 µM | – | 31.9 µM | – | 51.4 µM | – | 60.4 µM | – | > 100 µM | – | 76.9 µM | – | > 100 µM | – | 36 µM | – | > 100 µM
CCC(C)C1NC(=O)C(NC(=O)C(CC(C)C)N(C)C(=O)[C@@H]2CC(O)CN2C(=O)[C@H](C)O)C(C)OC(=O)[C@H](Cc2ccc(OC)cc2)N(C)C(=O)[C@@H]2CCCN2C(=O)[C@H](CC(C)C)NC(=O)C(C)C(=O)[C@H](C(C)C)OC(=O)CC1O (stereo not given in full) | 0.0259 | 0.855 µM and 0.233 µM | 0.0163 | 0.273 µM and 1.69 µM | 0.0218 | 1.06 µM and 0.193 µM | 0.0799 | 0.521 µM and 0.572 µM | 0.0208 | 0.902 µM and 0.234 µM | 0.0246 | 1.14 µM and 1.17 µM | 0.0603 | 1.83 µM and 0.416 µM | 0.0451 | 1.7 µM and 1.04 µM | < 0.01 | 0.342 µM and 0.206 µM | 0.0137 | 0.71 µM and 2.07 µM
COC(=O)c1cccc(NC(=O)c2ccc(NC3=C(Cl)C(=O)N(Cc4ccccc4)C3=O)cc2)c1 | 15.3 | 31.9 µM | 21.4 | > 100 µM | 1.76 | 16.2 µM | 7.25 | 35.2 µM | 7.52 | 32.8 µM | 16.1 | 56.1 µM | 15.1 | 28.3 µM | 23 | 54.9 µM | 14.5 | 44.2 µM | 4.46 | 63.3 µM
COc1c(B(O)O)cccc1-c1nc2c(F)cc3n[nH]c(C)c3c2c2c1CCCC2 | 0.238 | 3.14 µM | 1.51 | 5.26 µM | 0.688 | 4.14 µM | 0.892 | > 14.2 µM | 1.11 | 8.81 µM | 2.71 | > 42.1 µM | 1.46 | > 50 µM | 0.666 | 49.3 µM | 1.45 | 3.6 µM | 1.33 | > 23.2 µM
Cc1cc(C)c2c(c1)N(C)c1ncnc(-n3cnc4cc(C)ccc43)c1CC2C (stereo not given) | 2.93 | 12 µM | 3.32 | 10.5 µM | 4.82 | 33.4 µM | 3.1 | 17.9 µM | 2.07 | 6.53 µM | 4.18 | 47.4 µM | 2.25 | 14.8 µM | 6.04 | > 100 µM | 4.21 | 26.6 µM | 4.17 | 24.9 µM
C[C@]12CC[C@@H]3c4ccc(OC(=O)N(CCCl)CCCl)cc4CC[C@H]3[C@@H]1CC[C@@H]2OP(=O)(O)O | 27.1 | 79.1 µM | 57.8 | > 100 µM | 46.2 | > 100 µM | 43.7 | > 100 µM | 28.8 | > 71.5 µM | > 58.1 | > 100 µM | 41.2 | > 100 µM | > 75.5 | > 100 µM | 41.8 | > 100 µM | > 56.4 | > 100 µM
O=C(CN1CCN(C(=O)c2ccco2)CC1)Nc1ccc(Cl)cc1C(=O)c1ccccc1Cl | 2.62 | 13.1 µM | 7.32 | 23.7 µM | 11.1 | 23.1 µM | 13.3 | 44.8 µM | 4.16 | 27.4 µM | 5.91 | 31.5 µM | 2.75 | 16.3 µM | 14.7 | 43.1 µM | 3.14 | 17.5 µM | 2.32 | 15.4 µM
NC(=O)c1csc(-c2ccc(CO)o2)n1 | – | > 100 µM | – | > 100 µM | – | > 100 µM | – | > 100 µM | – | > 100 µM | – | > 100 µM | – | > 100 µM | – | > 100 µM | – | > 100 µM | – | > 100 µM
